According to ChEMBL document CHEMBL3885861, “Open TG-GATES”:

Species: Rattus norvegicus
Test: Open TG-GATES - Regimen: Daily Repeat
Assay type: toxicity, organism-based, Sprague-Dawley
Set-up: regimen Daily Repeat, gender Male, age 6 weeks
Details: in vivo, po, 1000 mg/kg, route gavage, dose level High; for APTT / Bas / Eos / Fbg / Hb / Ht / Lym / MCH / MCHC / MCV / Mono / Neu / PT / Plat / RBC / Ret / WBC: tissue Blood; for KIDNEY_L / KIDNEY_R / KIDNEY_TOTAL: tissue Kidney; for LIVER: tissue Liver; for A/G / ALP / ALT / AST / BUN / CRE / Ca / Cl / DBIL / GLC / IP / K / LDH / Na / PL / RALB / TBIL / TC / TG / TP / gamma-GTP: tissue Plasma

Work on `CN(C)[C@@H]1C(O)=C(C(N)=O)C(=O)[C@@]2(O)C(O)=C3C(=O)c4c(O)cccc4[C@@](C)(O)[C@H]3C[C@@H]12` [TETRACYCLINE] yielded a TERMINAL_BW (72 h, time 3 day) of 196.1 g, an APTT (72 h, time 3 day) of 16.3 s and a Bas (72 h, time 3 day) of 0%. The Eos (72 h, time 3 day) was 1.2%, the Fbg (72 h, time 3 day) was 220.4 mg/dL and the Hb (72 h, time 3 day) was 13.2 g/dL. For the same compound, the Ht (72 h, time 3 day) was 39.6%, the Lym (72 h, time 3 day) was 87.6% and the MCH (72 h, time 3 day) was 21.2 pg. It also gave an MCHC (72 h, time 3 day) of 33.2%, an MCV (72 h, time 3 day) of 63.8 fL and a Mono (72 h, time 3 day) of 4.6%. It also gave a Neu (72 h, time 3 day) of 6.6%, a PT (72 h, time 3 day) of 12.3 s and a Plat (72 h, time 3 day) of 111.2 x10_4/uL. The RBC (72 h, time 3 day) was 621.8 x10_4/ul, the Ret (72 h, time 3 day) was 5.2% and the WBC (72 h, time 3 day) was 98.6 x10_2/uL. It also gave a KIDNEY_L (72 h, time 3 day) of 0.9 g, a KIDNEY_R (72 h, time 3 day) of 0.9 g and a KIDNEY_TOTAL (72 h, time 3 day) of 1.8 g. It also gave an LIVER (72 h, time 3 day) of 8.4 g, an A/G (72 h, time 3 day) of 2.2 and an ALP (72 h, time 3 day) of 1151 IU/L. The ALT (72 h, time 3 day) was 37.8 IU/L, the AST (72 h, time 3 day) was 72.2 IU/L and the BUN (72 h, time 3 day) was 17.2 mg/dL. It also gave a CRE (72 h, time 3 day) of 0.5 mg/dL, a Ca (72 h, time 3 day) of 10.8 mg/dL and a Cl (72 h, time 3 day) of 105.8 meq/L. It also gave a DBIL (72 h, time 3 day) of 0.006 mg/dL, a GLC (72 h, time 3 day) of 181 mg/dL and an IP (72 h, time 3 day) of 9 mg/dL. It also gave a K (72 h, time 3 day) of 4.6 meq/L, an LDH (72 h, time 3 day) of 144.4 IU/L and a Na (72 h, time 3 day) of 140.8 meq/L. For the same compound, the PL (72 h, time 3 day) was 143.2 mg/dL, the RALB (72 h, time 3 day) was 3.8 g/dL and the TBIL (72 h, time 3 day) was 0.3 mg/dL. For the same compound, the TC (72 h, time 3 day) was 85.8 mg/dL, the TG (72 h, time 3 day) was 40.4 mg/dL and the TP (72 h, time 3 day) was 5.5 g/dL. The gamma-GTP (72 h, time 3 day) was 1.8 IU/L, the TERMINAL_BW ([…], time 7 day) was 225.1 g and the TERMINAL_BW ([…], time 14 day) was 289.3 g. The TERMINAL_BW ([…], time 28 day) was 356 g, the APTT ([…], time 7 day) was 16 s and the Bas ([…], time 7 day) was 0%. It also gave an Eos ([…], time 7 day) of 1.2%, a Fbg ([…], time 7 day) of 220.8 mg/dL and a Hb ([…], time 7 day) of 13.3 g/dL. For the same compound, the Ht ([…], time 7 day) was 39.5%, the Lym ([…], time 7 day) was 86.6% and the MCH ([…], time 7 day) was 20.8 pg. The MCHC ([…], time 7 day) was 33.6%, the MCV ([…], time 7 day) was 61.7 fL and the Mono ([…], time 7 day) was 5.8%. The Neu ([…], time 7 day) was 6.8%, the PT ([…], time 7 day) was 12.3 s and the Plat ([…], time 7 day) was 115 x10_4/uL. It also gave an RBC ([…], time 7 day) of 639.8 x10_4/ul, a Ret ([…], time 7 day) of 6.4% and a WBC ([…], time 7 day) of 124.1 x10_2/uL. The APTT ([…], time 14 day) was 16.2 s, the Bas ([…], time 14 day) was 0% and the Eos ([…], time 14 day) was 1%. For the same compound, the Fbg ([…], time 14 day) was 225.4 mg/dL, the Hb ([…], time 14 day) was 13.5 g/dL and the Ht ([…], time 14 day) was 40.9%. For the same compound, the Lym ([…], time 14 day) was 91.2%, the MCH ([…], time 14 day) was 20.6 pg and the MCHC ([…], time 14 day) was 33%. The MCV ([…], time 14 day) was 62.5 fL, the Mono ([…], time 14 day) was 2.6% and the Neu ([…], time 14 day) was 5.4%. It also gave a PT ([…], time 14 day) of 11.9 s, a Plat ([…], time 14 day) of 109.6 x10_4/uL and an RBC ([…], time 14 day) of 656 x10_4/ul. It also gave a Ret ([…], time 14 day) of 6.7%, a WBC ([…], time 14 day) of 146 x10_2/uL and an APTT ([…], time 28 day) of 16.6 s. For the same compound, the Bas ([…], time 28 day) was 0%, the Eos ([…], time 28 day) was 1% and the Fbg ([…], time 28 day) was 233.6 mg/dL. For the same compound, the Hb ([…], time 28 day) was 14.4 g/dL, the Ht ([…], time 28 day) was 43.2% and the Lym ([…], time 28 day) was 86.8%. The MCH ([…], time 28 day) was 19 pg, the MCHC ([…], time 28 day) was 33.4% and the MCV ([…], time 28 day) was 56.9 fL. It also gave a Mono ([…], time 28 day) of 3.6%, a Neu ([…], time 28 day) of 8.6% and a PT ([…], time 28 day) of 11.8 s. It also gave a Plat ([…], time 28 day) of 95 x10_4/uL, an RBC ([…], time 28 day) of 761.4 x10_4/ul and a Ret ([…], time 28 day) of 2.9%. The WBC ([…], time 28 day) was 154.2 x10_2/uL, the KIDNEY_L ([…], time 7 day) was 1 g and the KIDNEY_R ([…], time 7 day) was 1 g. It also gave a KIDNEY_TOTAL ([…], time 7 day) of 1.9 g, a KIDNEY_L ([…], time 14 day) of 1.1 g and a KIDNEY_R ([…], time 14 day) of 1.2 g. It also gave a KIDNEY_TOTAL ([…], time 14 day) of 2.3 g, a KIDNEY_L ([…], time 28 day) of 1.3 g and a KIDNEY_R ([…], time 28 day) of 1.2 g. It also gave a KIDNEY_TOTAL ([…], time 28 day) of 2.5 g, an LIVER ([…], time 7 day) of 9.5 g and an LIVER ([…], time 14 day) of 11.9 g. For the same compound, the LIVER ([…], time 28 day) was 12.2 g, the A/G ([…], time 7 day) was 2.1 and the ALP ([…], time 7 day) was 1114.8 IU/L. The ALT ([…], time 7 day) was 36.6 IU/L, the AST ([…], time 7 day) was 72 IU/L and the BUN ([…], time 7 day) was 17 mg/dL. The CRE ([…], time 7 day) was 0.5 mg/dL, the Ca ([…], time 7 day) was 11.1 mg/dL and the Cl ([…], time 7 day) was 106.2 meq/L. For the same compound, the DBIL ([…], time 7 day) was 0.008 mg/dL, the GLC ([…], time 7 day) was 179.6 mg/dL and the IP ([…], time 7 day) was 9 mg/dL. For the same compound, the K ([…], time 7 day) was 5.2 meq/L, the LDH ([…], time 7 day) was 116.4 IU/L and the Na ([…], time 7 day) was 140.4 meq/L. The PL ([…], time 7 day) was 139 mg/dL, the RALB ([…], time 7 day) was 3.8 g/dL and the TBIL ([…], time 7 day) was 0.2 mg/dL. For the same compound, the TC ([…], time 7 day) was 74 mg/dL, the TG ([…], time 7 day) was 56.2 mg/dL and the TP ([…], time 7 day) was 5.6 g/dL. For the same compound, the gamma-GTP ([…], time 7 day) was 1.2 IU/L, the A/G ([…], time 14 day) was 2 and the ALP ([…], time 14 day) was 1024 IU/L. For the same compound, the ALT ([…], time 14 day) was 33.8 IU/L, the AST ([…], time 14 day) was 64.8 IU/L and the BUN ([…], time 14 day) was 20.2 mg/dL. The CRE ([…], time 14 day) was 0.6 mg/dL, the Ca ([…], time 14 day) was 11.3 mg/dL and the Cl ([…], time 14 day) was 104 meq/L. It also gave a DBIL ([…], time 14 day) of 0.074 mg/dL, a GLC ([…], time 14 day) of 176 mg/dL and an IP ([…], time 14 day) of 9.2 mg/dL. It also gave a K ([…], time 14 day) of 4.9 meq/L, an LDH ([…], time 14 day) of 156.6 IU/L and a Na ([…], time 14 day) of 143 meq/L. It also gave a PL ([…], time 14 day) of 168.8 mg/dL, an RALB ([…], time 14 day) of 3.9 g/dL and a TBIL ([…], time 14 day) of 0.3 mg/dL. For the same compound, the TC ([…], time 14 day) was 89.2 mg/dL, the TG ([…], time 14 day) was 84.2 mg/dL and the TP ([…], time 14 day) was 5.9 g/dL. For the same compound, the gamma-GTP ([…], time 14 day) was 2 IU/L, the A/G ([…], time 28 day) was 1.8 and the ALP ([…], time 28 day) was 773.6 IU/L. It also gave an ALT ([…], time 28 day) of 35.2 IU/L, an AST ([…], time 28 day) of 71.8 IU/L and a BUN ([…], time 28 day) of 19.2 mg/dL. It also gave a CRE ([…], time 28 day) of 0.6 mg/dL, a Ca ([…], time 28 day) of 11.1 mg/dL and a Cl ([…], time 28 day) of 106 meq/L. It also gave a DBIL ([…], time 28 day) of 0.024 mg/dL, a GLC ([…], time 28 day) of 168.8 mg/dL and an IP ([…], time 28 day) of 7.6 mg/dL. It also gave a K ([…], time 28 day) of 4.4 meq/L, an LDH ([…], time 28 day) of 143.6 IU/L and a Na ([…], time 28 day) of 142 meq/L. The PL ([…], time 28 day) was 140.4 mg/dL, the RALB ([…], time 28 day) was 3.6 g/dL and the TBIL ([…], time 28 day) was 0.3 mg/dL. It also gave a TC ([…], time 28 day) of 77.6 mg/dL, a TG ([…], time 28 day) of 73.8 mg/dL and a TP ([…], time 28 day) of 5.7 g/dL. The gamma-GTP ([…], time 28 day) was 1.6 IU/L.
